Data taken from US11234979B2, “Heteroaryl compounds as muscarinic M1 receptor positive allosteric modulators” (SUVEN LIFE SCIENCES LIMITED, priority 2017, dated 2022).

Columns and labels:
[1] = Rodent pharmacokinetic study; type: in vivo, Male Wistar rats; conditions: male, Wistar, rat, plasma; for bioavailability: oral 3 mg/kg vs i.v. 1 mg/kg
Method: Rodent Pharmacokinetic Study
Male Wistar rats (260±50 grams) were used as experimental animals. Animals were housed individually in polypropylene cage. Two days prior to study, male Wistar rats were anesthetized with isoflurane for surgical placement of jugular vein catheter. Rats were randomly divided for oral (3 mg/kg) and intravenous (i.v) (1 mg/kg) dosing (n=3/group) and fasted overnight before oral dosing (p.o.). However, rats allocated to intravenous (i.v.) dosing food and water was provided ad libitum.
At pre-determined point, blood was collected through jugular vein and replenished with an equivalent volume of normal saline. Collected blood was transferred into a labeled eppendorf tube containing 10 μL of heparin as an anticoagulant. Typically blood samples were collected at following time points: 0.08, 0.25, 0.5, 1, 2, 4, 6, 8, and 24 hours post dose. Blood was centrifuged at 4000 rpm for 10 minutes. Plasma was separated and stored frozen at −80° C. until analysis. The concentrations of the test compounds were quantified in plasma by qualified LC-MS/MS method using suitable extraction technique. The test compounds were quantified in the calibration range around 1-1000 ng/mL in plasma. Study samples were analyzed using calibration samples in the batch and quality control samples spread across the batch.
Pharmacokinetic parameters Cmax, AUCt, T1/2, clearance and bioavailability (F) were calculated by non-compartmental model using standard non-compartmental model by using Phoenix WinNonlin 6.0.2 or 6.0.3 version Software package.

[2] = target: T1, recombinant human Muscarinic M1 receptor (Homo sapiens, UniProt P11229); assay: Allosteric potency EC50 for Muscarinic M1 receptor, CHO pCRE-Luc reporter assay with EC20 of acetylcholine; type: cell-based; conditions: CHO cells, in presence of EC20 of acetylcholine, 4 hours
T1 construct: expressed in transfected cells
T1 sequence (P11229 1-460): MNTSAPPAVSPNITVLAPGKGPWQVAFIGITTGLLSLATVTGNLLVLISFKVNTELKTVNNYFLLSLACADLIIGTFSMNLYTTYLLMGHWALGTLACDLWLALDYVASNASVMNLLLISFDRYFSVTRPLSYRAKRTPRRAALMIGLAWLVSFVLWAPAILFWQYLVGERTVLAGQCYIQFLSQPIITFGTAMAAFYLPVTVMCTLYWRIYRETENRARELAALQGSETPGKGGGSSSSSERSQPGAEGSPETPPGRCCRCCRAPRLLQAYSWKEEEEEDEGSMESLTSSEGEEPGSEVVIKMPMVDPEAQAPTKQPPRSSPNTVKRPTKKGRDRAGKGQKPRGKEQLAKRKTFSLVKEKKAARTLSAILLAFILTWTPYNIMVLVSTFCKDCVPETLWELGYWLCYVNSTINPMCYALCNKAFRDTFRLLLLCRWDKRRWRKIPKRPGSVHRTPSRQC
Method: Determination of Allosteric Potency EC50 Values for Muscarinic M1 Receptor:
A stable CHO cell line expressing recombinant human Muscarinic M1 receptor and pCRE-Luc reporter system was used for cell-based assay. The assay offers a non-radioactive based approach to determine binding of a compound to GPCRs. In this specific assay, the level of intracellular cyclic AMP which is modulated by activation or inhibition of the receptor is measured. The recombinant cells harbor luciferase reporter gene under the control of cAMP response element.
The above cells were grown in 96 well clear bottom white plates in Hams F12 medium containing 10% fetal bovine serum (FBS). Prior to the addition of compounds or standard agonist, cells were serum starved overnight. Increasing concentrations of test compounds were added along with EC20 of acetylcholine in OptiMEM medium to the cells. The incubation was continued at 37° C. in CO2 incubator for 4 hours. Medium was removed and cells were washed with phosphate buffered saline. The cells were lysed and luciferase activity was measured in a Luminometer. Luminescence counts in each concentrations of test item were normalized to the acetylcholine induced maximum response and the data was analyzed using Graphpad software. EC50 values of the compounds were defined as the concentration required in stimulating the luciferase activity by 50% in presence of EC20 of acetylcholine.

[3] = Rodent brain penetration study; type: in vivo, Male Wistar rats; conditions: male, Wistar, brain and plasma, po; rat, 3 mg/kg, p.o. @ 1.0 hr, brain-plasma ratio; read-out: Single dose Rat Brain Penetration (Cb/Cp)
Method: Rodent Brain Penetration Study
Male Wistar rats (260±40 grams) were used as experimental animals. Three animals were housed in each cage. Animals were given water and food ad libitum throughout the experiment and maintained on a 12 hours light/dark cycle.
Brain penetration was determined in discrete manner in rats. One day prior to dosing day, male Wistar rats were acclimatized and randomly grouped according to their weight. At each time point (0.5, 1 and 2 hours) n=3 animals were used.
The test compounds were suitably preformulated and administered orally at (free base equivalent) 3 mg/kg. Blood samples were removed via cardiac puncture by using isoflurane anesthesia. The animals were sacrificed to collect brain tissue. Plasma was separated and brain samples were homogenized and stored frozen at −20° C. until analysis. The concentrations of the test compounds in plasma and brain were determined using LC-MS/MS method.
The test compounds were quantified in plasma and brain homogenate by qualified LC-MS/MS method using suitable extraction technique. The test compounds were quantified in the calibration range of 1-500 ng/mL in plasma and brain homogenate. Study samples were analyzed using calibration samples in the batch and quality control samples spread across the batch.

SMILES: O=C(N[C@H]1CCCC[C@@H]1O)c1cc(Cc2ccc(Br)c(F)c2)c2cccnn12 [Example 3, N-(cis-1S,2S-2-Hydroxycyclohexyl)-5-(4-bromo-3-fluorobenzyl)-pyrrolo[1,2-b]pyridazine-7-carboxamide]
- AUC(0-t) ([1]; iv, i.v. 1 mg/kg): 951 ± 213 ng·h/mL
- half-life ([1]; iv, i.v. 1 mg/kg): 3.5 ± 1.1 h
- clearance ([1]; iv, i.v. 1 mg/kg): 17 ± 3 mL/min/kg
- bioavailability [1]: 49 ± 27%
- AUC(0-t) ([1]; oral 3 mg/kg): 1390 ± 780 ng·h/mL
- Cmax ([1]; oral 3 mg/kg): 132 ± 31 ng/mL
- half-life ([1]; oral 3 mg/kg): 3.6 ± 0.2 h
- EC50 [2]: 653 nM
- Kp at 1 h [3]: 1.9 ± 0.27

SMILES: O=C(N[C@H]1CCCC[C@@H]1O)c1cc(Cc2ccc3c(c2)CCO3)c2cccnn12 [Example 4, N-(cis-1S,2S-2-Hydroxycyclohexyl)-5-(2,3-dihydrobenzofuran-5-ylmethyl)-pyrrolo[1,2-b]pyridazine-7-carboxamide]
- AUC(0-t) ([1]; iv, i.v. 1 mg/kg): 599 ± 58 ng·h/mL
- half-life ([1]; iv, i.v. 1 mg/kg): 2.4 ± 0.9 h
- clearance ([1]; iv, i.v. 1 mg/kg): 27 ± 3.4 mL/min/kg
- bioavailability [1]: 25 ± 4%
- AUC(0-t) ([1]; oral 3 mg/kg): 457 ± 73 ng·h/mL
- Cmax ([1]; oral 3 mg/kg): 105 ± 3 ng/mL
- half-life ([1]; oral 3 mg/kg): 3.9 ± 1.4 h
- EC50 [2]: 836 nM
- Kp at 1 h [3]: 1.31 ± 0.11

SMILES: O=C(N[C@H]1CCCC[C@@H]1O)c1cc(Cc2ccc(-n3cccn3)cc2)c2cccnn12 [Example 21, N-(cis-1S,2S-2-Hydroxycyclohexyl)-5-(4-pyrazol-1-ylbenzyl)-pyrrolo[1,2-b]pyridazine-7-carboxamide]
- AUC(0-t) ([1]; iv, i.v. 1 mg/kg): 3700 ± 768 ng·h/mL
- half-life ([1]; iv, i.v. 1 mg/kg): 2.5 ± 0.7 h
- clearance ([1]; iv, i.v. 1 mg/kg): 4.6 ± 0.9 mL/min/kg
- bioavailability [1]: 49 ± 12%
- AUC(0-t) ([1]; oral 3 mg/kg): 5470 ± 1370 ng·h/mL
- Cmax ([1]; oral 3 mg/kg): 687 ± 169 ng/mL
- half-life ([1]; oral 3 mg/kg): 3.4 ± 1.01 h
- EC50 [2]: 179 nM
- Kp at 1 h [3]: 0.24 ± 0.02

SMILES: Cn1cc(-c2ccc(Cc3cc(C(=O)N[C@H]4CCCC[C@@H]4O)n4ncccc34)cc2F)cn1 [Example 33, N-(cis-1S,2S-2-Hydroxycyclohexyl)-5-[3-fluoro-4-(1-methyl-1H-pyrazol-4-yl)-benzyl]-pyrrolo[1,2-b]pyridazine-7-carboxamide]
- AUC(0-t) ([1]; iv, i.v. 1 mg/kg): 908 ± 164 ng·h/mL
- half-life ([1]; iv, i.v. 1 mg/kg): 1.3 ± 0.2 h
- clearance ([1]; iv, i.v. 1 mg/kg): 19 ± 3.8 mL/min/kg
- bioavailability [1]: 103 ± 0.7%
- AUC(0-t) ([1]; oral 3 mg/kg): 2820 ± 20 ng·h/mL
- Cmax ([1]; oral 3 mg/kg): 414 ± 21 ng/mL
- half-life ([1]; oral 3 mg/kg): 2.7 ± 0.1 h
- EC50 [2]: 259 nM
- Kp at 1 h [3]: 0.2 ± 0.001

SMILES: Cn1cc(-c2ccc(Cc3cc(C(=O)NC4CCOCC4O)n4ncccc34)cc2)cn1 (stereo not shown) [Example 39, N-(3-Hydroxytetrahydropyran-4-yl)-5-[4-(1-methyl-1H-pyrazol-4-yl)-benzyl]-pyrrolo[1,2-b]pyridazine-7-carboxamide]
- EC50 [2]: 291 nM

SMILES: Cn1cc(-c2cc(Cc3cc(C(=O)N[C@H]4CCCC[C@@H]4O)n4ncccc34)ccn2)cn1 [Example 40, N-(cis-1S,2S-2-Hydroxycyclohexyl)-5-[2-(1-methyl-1H-pyrazol-4-yl)-pyridin-4-ylmethyl]-pyrrolo[1,2-b]pyridazine-7-carboxamide]
- EC50 [2]: 1650 nM

SMILES: O=C(N[C@H]1CCCC[C@@H]1O)c1cc(Cc2ccc(Br)cc2)n2cccc(F)c12 [Example 41, N-(cis-1S,2S-2-Hydroxycyclohexyl)-3-(4-bromobenzyl)-8-fluoroindolizine-1-carboxamide]
- EC50 [2]: 236 nM

SMILES: O=C(N[C@H]1CCCC[C@@H]1O)c1cc(Cc2ccccc2)n2cccc(F)c12 [Example 42, N-(cis-1S,2S-2-Hydroxycyclohexyl)-3-benzyl-8-fluoroindolizine-1-carboxamide]
- EC50 [2]: 1130 nM

SMILES: O=C(N[C@H]1CCCC[C@@H]1O)c1cc(Cc2ccnc(Cl)c2)n2cccc(F)c12 [Example 43, N-(cis-1S,2S-2-Hydroxycyclohexyl)-3-(2-chloropyridine-4-ylmethyl)-8-fluoroindolizine-1-carboxamide]
- EC50 [2]: 2060 nM

SMILES: COc1ccc(Cc2cc(C(=O)N[C@H]3CCCC[C@@H]3O)c3c(F)cccn23)cc1 [Example 44, N-(cis-1S,2S-2-Hydroxycyclohexyl)-3-(4-methoxybenzyl)-8-fluoroindolizine-1-carboxamide]
- EC50 [2]: 1590 nM

SMILES: O=C(N[C@H]1CCCC[C@@H]1O)c1cc(Cc2ccc(-c3cscn3)cc2)n2cccc(F)c12 [Example 45, N-(cis-1S,2S-2-Hydroxycyclohexyl)-3-(4-thiazol-4-yl-benzyl)-8-fluoroindolizine-1-carboxamide]
- EC50 [2]: 3190 nM

SMILES: O=C(NC1CCOCC1O)c1cc(Cc2ccnc(Cl)c2)n2cccc(F)c12 (stereo not shown) [Example 46, N-(3-Hydroxytetrahydropyran-4-yl)-3-(2-chloropyridine-4-ylmethyl)-8-fluoroindolizine-1-carboxamide]
- EC50 [2]: 463 nM

SMILES: COc1ccc(Cc2cc(C(=O)NC3CCOCC3O)c3c(F)cccn23)cc1 (stereo not shown) [Example 47, N-(3-Hydroxytetrahydropyran-4-yl)-3-(4-methoxybenzyl)-8-fluoroindolizine-1-carboxamide]
- EC50 [2]: 1110 nM

SMILES: Cn1cc(-c2ccc(Cc3cc(C(=O)N[C@H]4CCCC[C@@H]4O)c4c(F)cccn34)cc2)cn1 [Example 48, N-(cis-1S,2S-2-Hydroxycyclohexyl)-5-[4-(1-methyl-1H-pyrazol-4-yl)-benzyl]-8-fluoroindolizine-1-carboxamide]
- EC50 [2]: 166 nM

SMILES: Cn1cc(-c2ccc(Cc3cc(C(=O)NC4CCOCC4O)c4c(F)cccn34)cc2)cn1 (stereo not shown) [Example 49, N-(3-Hydroxytetrahydropyran-4-yl)-3-(4-(1-methyl-1H-pyrazol-4-yl)-benzyl)-8-fluoroindolizine-1-carboxamide]
- EC50 [2]: 1210 nM

SMILES: Cn1cc(-c2ccc(Cc3cc(C(=O)NC4CCOCC4)c4c(F)cccn34)cc2)cn1 [Example 50, N-(Tetrahydropyran-4-yl)-3-(4(1-methyl-1H-pyrazol-4-yl)-benzyl)-8-fluoroindolizine-1-carboxamide]
- EC50 [2]: 2530 nM

SMILES: Cn1cc(-c2ccc(Cc3cc(C(=O)NC4COCCC4O)c4c(F)cccn34)cc2)cn1 (stereo not shown) [Example 51, N-(4-Hydroxytetrahydropyran-3-yl)-3-(4-(1-methyl-1H-pyrazol-4-yl)-benzyl)-8-fluoroindolizine-1-carboxamide]
- EC50 [2]: 3650 nM
